Reference: patent US20260265195A1, “SARM1 MODULATORS, PREPARATIONS, AND USES THEREOF” (SIRONAX LTD, priority 2022, published 2026)
Values belong to the compound of their own block, whether it stands above or below them.

Target: T1, SARM1 (50-724) (Homo sapiens, UniProt Q6SZW1)
T1 construct: Purified SARM1 (50-724) with a final concentration of 2 nM
T1 sequence (Q6SZW1 50-724): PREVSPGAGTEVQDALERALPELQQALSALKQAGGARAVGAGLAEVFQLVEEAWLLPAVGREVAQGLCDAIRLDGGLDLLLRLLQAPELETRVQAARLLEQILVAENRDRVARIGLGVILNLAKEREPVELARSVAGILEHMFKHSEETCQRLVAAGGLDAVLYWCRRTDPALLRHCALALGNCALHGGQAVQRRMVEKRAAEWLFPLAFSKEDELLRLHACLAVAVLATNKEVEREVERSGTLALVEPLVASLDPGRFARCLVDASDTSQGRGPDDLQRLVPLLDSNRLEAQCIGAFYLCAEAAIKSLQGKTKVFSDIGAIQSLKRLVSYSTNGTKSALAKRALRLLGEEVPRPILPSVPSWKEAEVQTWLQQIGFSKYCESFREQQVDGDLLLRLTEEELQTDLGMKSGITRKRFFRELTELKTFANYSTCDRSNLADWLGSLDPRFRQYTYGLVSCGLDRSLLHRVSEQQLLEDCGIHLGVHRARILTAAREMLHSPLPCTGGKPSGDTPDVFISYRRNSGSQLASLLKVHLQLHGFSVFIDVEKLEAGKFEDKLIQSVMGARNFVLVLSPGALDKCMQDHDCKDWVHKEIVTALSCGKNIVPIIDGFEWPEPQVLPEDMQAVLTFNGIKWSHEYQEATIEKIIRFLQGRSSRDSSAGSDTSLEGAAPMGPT
Test: SARM1 (50-724) enzymatic assay (NMN-activated NAD+ hydrolysis, LC-MS/MS readout)
Format: biochemical
Details: purified SARM1 (50-724) 2 nM, 200 μM NMN activator, 100 μM NAD+ substrate, 1 h at room temperature, read-out: IC50 (SARM1 inhibitory activity)
Summary of the method: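 NMN-activated NAD+ hydrolysis: compound pre-incubated 15 min at room temperature with 2 nM SARM1 (50-724) at 1% DMSO in DPBS; 100 μM NAD+ plus 200 μM NMN added and reacted 1 h at RT. Acetonitrile quench, LC-MS/MS readout.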

SMILES: O=C(c1nc2cc(C(F)(F)F)ccc2[nH]1)N(CC1CC(O)C1)c1cccc(F)c1Cl (stereo not shown) [Compound 194, N-(2-chloro-3-fluorophenyl)-N-((3-hydroxycyclobutyl)methyl)-5-(trifluoromethyl)-1H-benzo[d]imidazole-2-carboxamide]
IC50: ≤ 100 nM

SMILES: O=C(c1nc2cc(C(F)(F)F)ccc2[nH]1)N(CC1(O)CC1)c1cccc(Cl)c1Cl [Compound 197, N-(2,3-dichlorophenyl)-N-((1-hydroxycyclopropyl)methyl)-5-(trifluoromethyl)-1H-benzo[d]imidazole-2-carboxamide]
IC50: ≤ 100 nM

SMILES: O=C(c1nc2cc(C(F)(F)F)ccc2[nH]1)N(CCN1CCCS1(=O)=O)c1cccc(Cl)c1Cl [Compound 199, N-(2,3-dichlorophenyl)-N-(2-(1,1-dioxidoisothiazolidin-2-yl)ethyl)-5-(trifluoromethyl)-1H-benzo[d]imidazole-2-carboxamide]
IC50: ≤ 100 nM

SMILES: COCC1(CN(C(=O)c2nc3cc(C(F)(F)F)ccc3[nH]2)c2cccc(Cl)c2Cl)COC1 [Compound 200]
IC50: ≤ 100 nM

SMILES: O=C(CN(C(=O)c1nc2cc(C(F)(F)F)ccc2[nH]1)c1cccc(Cl)c1Cl)N1CCC1 [Compound 202, N-(2-(azetidin-1-yl)-2-oxoethyl)-N-(2,3-dichlorophenyl)-5-(trifluoromethyl)-1H-benzo[d]imidazole-2-carboxamide]
IC50: ≤ 100 nM

SMILES: O=C(c1nc2cc(C(F)(F)F)ccc2[nH]1)N(CCO)c1ccc(F)c(F)c1Cl [Compound 203, N-(2-chloro-3,4-difluorophenyl)-N-(2-hydroxyethyl)-5-(trifluoromethyl)-1H-benzo[d]imidazole-2-carboxamide]
IC50: ≤ 100 nM

SMILES: COC(=O)C(C)(C)c1ccc2[nH]c(C(=O)N(CC3(F)COC3)c3cccc(Cl)c3Cl)nc2c1 [Compound 204]
IC50: ≤ 100 nM

SMILES: CC(C)(C#N)c1ccc2[nH]c(C(=O)N(CC(F)(F)CO)c3ccc(F)c(F)c3Cl)nc2c1 [Compound 208]
IC50: ≤ 100 nM

SMILES: CCOC(=O)C(F)(F)CN(C(=O)c1nc2cc(C3CC3)ccc2[nH]1)c1cccc(F)c1Cl [Compound 209]
IC50: ≤ 100 nM

SMILES: O=C(c1nc2cc(C(F)(F)F)cc(F)c2[nH]1)N(CC(F)(F)CO)c1cccc(F)c1Cl [Compound 211]
IC50: ≤ 100 nM

SMILES: O=C(c1nc2cc(C(F)(F)F)ccc2[nH]1)N(CC(F)(F)CO)c1ccc(F)c(F)c1Cl [Compound 212, N-(2-chloro-3,4-difluorophenyl)-N-(2,2-difluoro-3-hydroxypropyl)-5-(trifluoromethyl)-1H-benzo[d]imidazole-2-carboxamide]
IC50: ≤ 100 nM

Results, then the compound that gave them:

IC50: ≤ 100 nM
SMILES: CC1(c2ccc3[nH]c(C(=O)N(CCO)c4cccc(Cl)c4Cl)nc3c2)COC1 [Compound 195]

IC50: ≤ 100 nM
SMILES: CC(C)(O)CCN(C(=O)c1nc2cc(C(F)(F)F)ccc2[nH]1)c1cccc(Cl)c1Cl [Compound 198, N-(2,3-dichlorophenyl)-N-(3-hydroxy-3-methylbutyl)-5-(trifluoromethyl)-1H-benzo[d]imidazole-2-carboxamide]

IC50: ≤ 100 nM
SMILES: CC(C)(C)c1ccc2[nH]c(C(=O)N(CCO)c3cccc(F)c3Cl)nc2c1 [Compound 201]

IC50: ≤ 100 nM
SMILES: CC(C)(CO)c1ccc2[nH]c(C(=O)N(CC3(F)COC3)c3cccc(Cl)c3Cl)nc2c1 [Compound 205]

IC50: ≤ 100 nM
SMILES: O=C(c1nc2cc(C(F)(F)F)cc(F)c2[nH]1)N(CCO)c1cccc(Cl)c1Cl [Compound 206]

IC50: 101 to 500 nM
SMILES: COc1ccc(Cl)c(N(CC(F)(F)CO)C(=O)c2nc3cc(C(F)(F)F)ccc3[nH]2)n1 [Compound 207, N-(3-chloro-6-methoxypyridin-2-yI)-N-(2,2-difluoro-3-hydroxypropyl)-5-(trifluoromethyl)-1H-benzo[d]imidazole-2-carboxamide]

IC50: ≤ 100 nM
SMILES: O=C(c1nc2cc(C3CC3)ccc2[nH]1)N(CC(F)(F)CO)c1cccc(F)c1Cl [Compound 210]

IC50: 101 to 500 nM
SMILES: O=C(c1nc2cc(C(F)(F)F)ccc2[nH]1)N(CCN1CCOCC1)c1cccc(F)c1Cl [Compound 214, N-(2-chloro-3-fluorophenyl)-N-(2-morpholinoethyl)-5-(trifluoromethyl)-1H-benzo[d]imidazole-2-carboxamide]
